Where two headings read alike, the source gives them in different places.
Experiments:
proteinase K = proteinase K (Parengyodontium album, UniProt P06873); test: HPLC-based proteolysis assay with proteinase K; assay type: in vitro ADME
[1] = variable temperature CD, 20 mM sodium phosphate buffer, pH 7

Sequence of proteinase K (P06873 106-384, species assumed): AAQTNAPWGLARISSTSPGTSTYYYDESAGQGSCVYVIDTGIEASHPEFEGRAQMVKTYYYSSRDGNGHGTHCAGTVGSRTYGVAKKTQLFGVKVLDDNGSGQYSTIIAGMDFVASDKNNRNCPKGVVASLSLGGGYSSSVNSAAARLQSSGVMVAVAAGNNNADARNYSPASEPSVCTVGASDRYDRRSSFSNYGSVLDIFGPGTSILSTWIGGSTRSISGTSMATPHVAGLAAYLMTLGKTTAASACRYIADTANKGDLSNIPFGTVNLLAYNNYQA

CC[C@H](C)[C@H](NC(=O)[C@H](Cc1c[nH]cn1)NC(=O)[C@H](CC(N)=O)NC(=O)[C@H](Cc1ccccc1)NC(=O)[C@H](Cc1ccc(O)cc1)NC(=O)[C@H](Cc1ccc(O)cc1)NC(=O)[C@@H](NC(=O)[C@H](CCCNC(=N)N)NC(=O)CNC(=O)[C@H](CO)NC(=O)[C@H](CO)NC(=O)[C@H](CCCNC(=N)N)NC(=O)[C@H](CCC(N)=O)NC(=O)[C@H](CCSC)NC(=O)[C@H](CCCNC(=N)N)NC(=O)[C@H](CCCCN)NC(=O)[C@H](CCC(=O)O)NC(=O)[C@H](Cc1c[nH]c2ccccc12)NC(=O)CNC(=O)[C@@H]1CCCN1C(=O)[C@@H]1CCCN1C(=O)[C@H](CC(C)C)NC(=O)[C@@H](N)CCCCN)C(C)C)C(=O)N[C@H](C(=O)N[C@@H](CC(N)=O)C(=O)N[C@@H](C)C(=O)N[C@@H](CO)C(=O)N[C@@H](CCC(N)=O)C(=O)N[C@@H](Cc1ccccc1)C(=O)N[C@@H](CCC(=O)O)C(=O)N[C@@H](CCCNC(=N)N)C(=O)N1CCC[C@H]1C(=O)N[C@@H](CO)C(=O)NCC(=O)O)[C@@H](C)O [16Q]
k, apparent proteolysis rate constant (proteinase K): 8.9 ±0.2 s^−1 × 10^3
Tm (melting temperature) ([1]; 50 μM protein): 56.6 ±0.1 °C

CC[C@H](C)[C@H](NC(=O)[C@H](CCC(N)=O)NC(=O)[C@H](CC(N)=O)NC(=O)[C@H](Cc1ccccc1)NC(=O)[C@H](Cc1ccc(O)cc1)NC(=O)[C@H](Cc1ccc(O)cc1)NC(=O)[C@@H](NC(=O)[C@H](CCCNC(=N)N)NC(=O)CNC(=O)[C@H](CO)NC(=O)[C@H](CO)NC(=O)[C@H](CCCNC(=N)N)NC(=O)[C@H](CO)NC(=O)[C@H](CCSC)NC(=O)[C@H](CCCNC(=N)N)NC(=O)[C@H](CCCCN)NC(=O)[C@H](CCC(=O)O)NC(=O)[C@H](Cc1c[nH]c2ccccc12)NC(=O)CNC(=O)[C@@H]1CCCN1C(=O)[C@@H]1CCCN1C(=O)[C@H](CC(C)C)NC(=O)[C@@H](N)CCCCN)C(C)C)C(=O)N[C@H](C(=O)N[C@@H](CC(N)=O)C(=O)N[C@@H](C)C(=O)N[C@@H](CO)C(=O)N[C@@H](CCC(N)=O)C(=O)N[C@@H](Cc1ccccc1)C(=O)N[C@@H](CCC(=O)O)C(=O)N[C@@H](CCCNC(=N)N)C(=O)N1CCC[C@H]1C(=O)N[C@@H](CO)C(=O)NCC(=O)O)[C@@H](C)O [27Q]
k, apparent proteolysis rate constant (proteinase K): 10.8 ±0.2 s^−1 × 10^3
Tm (melting temperature) ([1]; 50 μM protein): 56.4 ±0.2 °C

CC[C@H](C)[C@H](NC(=O)[C@H](Cc1c[nH]cn1)NC(=O)[C@H](CC(N)=O)NC(=O)[C@H](Cc1ccccc1)NC(=O)[C@H](Cc1ccc(O)cc1)NC(=O)[C@H](CCC(N)=O)NC(=O)[C@@H](NC(=O)[C@H](CCCNC(=N)N)NC(=O)CNC(=O)[C@H](CO)NC(=O)[C@H](CO)NC(=O)[C@H](CCCNC(=N)N)NC(=O)[C@H](CO)NC(=O)[C@H](CCSC)NC(=O)[C@H](CCCNC(=N)N)NC(=O)[C@H](CCCCN)NC(=O)[C@H](CCC(=O)O)NC(=O)[C@H](Cc1c[nH]c2ccccc12)NC(=O)CNC(=O)[C@@H]1CCCN1C(=O)[C@@H]1CCCN1C(=O)[C@H](CC(C)C)NC(=O)[C@@H](N)CCCCN)C(C)C)C(=O)N[C@H](C(=O)N[C@@H](CC(N)=O)C(=O)N[C@@H](C)C(=O)N[C@@H](CO)C(=O)N[C@@H](CCC(N)=O)C(=O)N[C@@H](Cc1ccccc1)C(=O)N[C@@H](CCC(=O)O)C(=O)N[C@@H](CCCNC(=N)N)C(=O)N1CCC[C@H]1C(=O)N[C@@H](CO)C(=O)NCC(=O)O)[C@@H](C)O [23Q]
k, apparent proteolysis rate constant (proteinase K): 46.9 ±5.3 s^−1 × 10^3
Tm (melting temperature) ([1]; 50 μM protein): 39.4 ±0.2 °C

CC[C@H](C)[C@H](NC(=O)[C@H](Cc1c[nH]cn1)NC(=O)[C@H](CC(N)=O)NC(=O)[C@H](Cc1ccccc1)NC(=O)[C@H](Cc1ccc(O)cc1)NC(=O)[C@H](Cc1ccc(O)cc1)NC(=O)[C@@H](NC(=O)[C@H](CCCNC(=N)N)NC(=O)CNC(=O)[C@H](CO)NC(=O)[C@H](CO)NC(=O)[C@H](CCCNC(=N)N)NC(=O)[C@H](CO)NC(=O)[C@H](CCSC)NC(=O)[C@H](CCCNC(=N)N)NC(=O)[C@H](CCCCN)NC(=O)[C@H](CCC(=O)O)NC(=O)[C@H](Cc1c[nH]c2ccccc12)NC(=O)CNC(=O)[C@@H]1CCCN1C(=O)[C@@H]1CCCN1C(=O)[C@H](CC(C)C)NC(=O)[C@@H](N)CCCCN)C(C)C)C(=O)N[C@H](C(=O)N[C@@H](CC(N)=O)C(=O)N[C@@H](C)C(=O)N[C@@H](CC(N)=O)C(=O)N[C@@H](CCC(N)=O)C(=O)N[C@@H](Cc1ccccc1)C(=O)N[C@@H](CCC(=O)O)C(=O)N[C@@H](CCCNC(=N)N)C(=O)N1CCC[C@H]1C(=O)N[C@@H](CO)C(=O)NCC(=O)O)[C@@H](C)O [32N]
Tm (melting temperature) ([1]; 100 μM protein): 45.1 ±0.2 °C

CC[C@H](C)[C@H](NC(=O)[C@H](CC(N)=O)NC(=O)[C@H](CC(N)=O)NC(=O)[C@H](Cc1ccccc1)NC(=O)[C@H](Cc1ccc(O)cc1)NC(=O)[C@H](Cc1ccc(O)cc1)NC(=O)[C@@H](NC(=O)[C@H](CCCNC(=N)N)NC(=O)CNC(=O)[C@H](CO)NC(=O)[C@H](CO)NC(=O)[C@H](CCCNC(=N)N)NC(=O)[C@H](CO)NC(=O)[C@H](CCSC)NC(=O)[C@H](CCCNC(=N)N)NC(=O)[C@H](CCCCN)NC(=O)[C@H](CCC(=O)O)NC(=O)[C@H](Cc1c[nH]c2ccccc12)NC(=O)CNC(=O)[C@@H]1CCCN1C(=O)[C@@H]1CCCN1C(=O)[C@H](CC(C)C)NC(=O)[C@@H](N)CCCCN)C(C)C)C(=O)N[C@H](C(=O)N[C@@H](CC(N)=O)C(=O)N[C@@H](C)C(=O)N[C@@H](CO)C(=O)N[C@@H](CCC(N)=O)C(=O)N[C@@H](Cc1ccccc1)C(=O)N[C@@H](CCC(=O)O)C(=O)N[C@@H](CCCNC(=N)N)C(=O)N1CCC[C@H]1C(=O)N[C@@H](CO)C(=O)NCC(=O)O)[C@@H](C)O [27N]
Tm (melting temperature) ([1]; 50 μM protein): 54.9 ±0.1 °C

CC[C@H](C)[C@H](NC(=O)[C@H](Cc1c[nH]cn1)NC(=O)[C@H](CC(N)=O)NC(=O)[C@H](Cc1ccccc1)NC(=O)[C@H](Cc1ccc(O)cc1)NC(=O)[C@H](Cc1ccc(O)cc1)NC(=O)[C@@H](NC(=O)[C@H](CCCNC(=N)N)NC(=O)CNC(=O)[C@H](CO)NC(=O)[C@H](CC(N)=O)NC(=O)[C@H](CCCNC(=N)N)NC(=O)[C@H](CO)NC(=O)[C@H](CCSC)NC(=O)[C@H](CCCNC(=N)N)NC(=O)[C@H](CCCCN)NC(=O)[C@H](CCC(=O)O)NC(=O)[C@H](Cc1c[nH]c2ccccc12)NC(=O)CNC(=O)[C@@H]1CCCN1C(=O)[C@@H]1CCCN1C(=O)[C@H](CC(C)C)NC(=O)[C@@H](N)CCCCN)C(C)C)C(=O)N[C@H](C(=O)N[C@@H](CC(N)=O)C(=O)N[C@@H](C)C(=O)N[C@@H](CO)C(=O)N[C@@H](CCC(N)=O)C(=O)N[C@@H](Cc1ccccc1)C(=O)N[C@@H](CCC(=O)O)C(=O)N[C@@H](CCCNC(=N)N)C(=O)N1CCC[C@H]1C(=O)N[C@@H](CO)C(=O)NCC(=O)O)[C@@H](C)O [18N]
Tm (melting temperature) ([1]; 100 μM protein): 57.5 ±0.1 °C

CC[C@H](C)[C@H](NC(=O)[C@H](Cc1c[nH]cn1)NC(=O)[C@H](CC(N)=O)NC(=O)[C@H](Cc1ccccc1)NC(=O)[C@H](Cc1ccc(O)cc1)NC(=O)[C@H](Cc1ccc(O)cc1)NC(=O)[C@@H](NC(=O)[C@H](CCCNC(=N)N)NC(=O)CNC(=O)[C@H](CO)NC(=O)[C@H](CO)NC(=O)[C@H](CCCNC(=N)N)NC(=O)[C@H](CC(N)=O)NC(=O)[C@H](CCSC)NC(=O)[C@H](CCCNC(=N)N)NC(=O)[C@H](CCCCN)NC(=O)[C@H](CCC(=O)O)NC(=O)[C@H](Cc1c[nH]c2ccccc12)NC(=O)CNC(=O)[C@@H]1CCCN1C(=O)[C@@H]1CCCN1C(=O)[C@H](CC(C)C)NC(=O)[C@@H](N)CCCCN)C(C)C)C(=O)N[C@H](C(=O)N[C@@H](CC(N)=O)C(=O)N[C@@H](C)C(=O)N[C@@H](CO)C(=O)N[C@@H](CCC(N)=O)C(=O)N[C@@H](Cc1ccccc1)C(=O)N[C@@H](CCC(=O)O)C(=O)N[C@@H](CCCNC(=N)N)C(=O)N1CCC[C@H]1C(=O)N[C@@H](CO)C(=O)NCC(=O)O)[C@@H](C)O [16N]
Tm (melting temperature) ([1]; 100 μM protein): 50.6 ±0.2 °C

CC[C@H](C)[C@H](NC(=O)[C@H](Cc1c[nH]cn1)NC(=O)[C@H](CC(N)=O)NC(=O)[C@H](Cc1ccccc1)NC(=O)[C@H](Cc1ccc(O)cc1)NC(=O)[C@H](CC(N)=O)NC(=O)[C@@H](NC(=O)[C@H](CCCNC(=N)N)NC(=O)CNC(=O)[C@H](CO)NC(=O)[C@H](CO)NC(=O)[C@H](CCCNC(=N)N)NC(=O)[C@H](CO)NC(=O)[C@H](CCSC)NC(=O)[C@H](CCCNC(=N)N)NC(=O)[C@H](CCCCN)NC(=O)[C@H](CCC(=O)O)NC(=O)[C@H](Cc1c[nH]c2ccccc12)NC(=O)CNC(=O)[C@@H]1CCCN1C(=O)[C@@H]1CCCN1C(=O)[C@H](CC(C)C)NC(=O)[C@@H](N)CCCCN)C(C)C)C(=O)N[C@H](C(=O)N[C@@H](CC(N)=O)C(=O)N[C@@H](C)C(=O)N[C@@H](CO)C(=O)N[C@@H](CCC(N)=O)C(=O)N[C@@H](Cc1ccccc1)C(=O)N[C@@H](CCC(=O)O)C(=O)N[C@@H](CCCNC(=N)N)C(=O)N1CCC[C@H]1C(=O)N[C@@H](CO)C(=O)NCC(=O)O)[C@@H](C)O [23N]
Tm (melting temperature) ([1]; 50 μM protein): 27.7 ±0.3 °C

CC[C@H](C)[C@H](NC(=O)[C@H](Cc1c[nH]cn1)NC(=O)[C@H](CC(N)=O)NC(=O)[C@H](Cc1ccccc1)NC(=O)[C@H](Cc1ccc(O)cc1)NC(=O)[C@H](Cc1ccc(O)cc1)NC(=O)[C@@H](NC(=O)[C@H](CCCNC(=N)N)NC(=O)CNC(=O)[C@H](CO)NC(=O)[C@H](CO)NC(=O)[C@H](CCCNC(=N)N)NC(=O)[C@H](CO)NC(=O)[C@H](CCSC)NC(=O)[C@H](CCCNC(=N)N)NC(=O)[C@H](CCCCN)NC(=O)[C@H](CCC(=O)O)NC(=O)[C@H](Cc1c[nH]c2ccccc12)NC(=O)CNC(=O)[C@@H]1CCCN1C(=O)[C@@H]1CCCN1C(=O)[C@H](CC(C)C)NC(=O)[C@@H](N)CCCCN)C(C)C)C(=O)N[C@@H](CC(N)=O)C(=O)N[C@@H](CC(N)=O)C(=O)N[C@@H](C)C(=O)N[C@@H](CO)C(=O)N[C@@H](CCC(N)=O)C(=O)N[C@@H](Cc1ccccc1)C(=O)N[C@@H](CCC(=O)O)C(=O)N[C@@H](CCCNC(=N)N)C(=O)N1CCC[C@H]1C(=O)N[C@@H](CO)C(=O)NCC(=O)O [29N]
Tm (melting temperature) ([1]; 50 μM protein): 50.0 ±0.1 °C

Source: publication PMC6330093 (Bioconjugate chemistry, 2017)
